The conditions of assay [1]: Funder et al., 1978; cited from earlier work.
Assay [2] relates to bad bladder epithelia. Conditions: relative to aldosterone; Perrone et al., 1981; cited from earlier work.
For assay [3] the following is noted: times the potency of DOC; Kagawa et al., 1957; cited from earlier work.
The target of assay [4] is adrenal 19-hydroxylase. Nature of the assay: in vitro radioenzymatic assay, inhibition of adrenal 19-hydroxylase (19-hydroxylation of radiolabeled deoxycorticosterone). It is filed as biochemical, rat, hamster, bovine, primate, or human. As for the experimental part: The compounds of the present invention are useful as 19-hydroxylase inhibitors and antihypertensive agents. […] The test compounds are solubilized in buffer/solvent media at concentrations ranging from 1 nM to 50 μM, then added to assay tubes containing an adrenal mitochondrial suspension, i.e., rat, hamster, bovine, primate, or human, an NADPH-generating system, and radiolabeled deoxycorticosterone. The assay components are incubated for varying time intervals at 25°-37° C. and the reaction is quenched. The hydroxylated corticoids [i.e., 19--HO--DOC (19-hydroxydesoxycorticosterone), 18--HO--DOC(18-hydroxydeoxycorticosterone) and corticosterone] are extracted with organic solvent and isolated by standard chromatographic procedures.

The subject of assay [5] is weanling SHR rats. The conditions noted are these: administered to weanling SHR rats; Melby et al., 1987; cited from earlier work.

`C[C@]12CC[C@H]3[C@@H](CCC4=CC(=O)CC[C@@H]43)[C@@H]1CC[C@@H]2C(=O)CO` [Example 19-norDOC, 19-nordeoxycorticosterone]: the “hypertensive activity compared to deoxycorticosterone (DOC)” value in assay [1] is “much higher hypertensive activity”. Moreover, in assay [2], the “stimulating Na^+ transport across bladder epithelia, potency vs aldosterone” value was “equipotent to aldosterone”. In assay [3], the “Na-retaining activity, potency relative to DOC” value is “two to five”.
For `C#CC[C@]12CCC(=O)C=C1CC[C@@H]1[C@@H]2CC[C@]2(C)[C@@H](C(=O)CO)CC[C@@H]12` [21-hydroxy-10-(2-propynyl)-19-norpregn-4-ene-3,20-dione], in assay [4] (adrenal mitochondrial suspension, NADPH-generating system, radiolabeled deoxycorticosterone, 25°-37° C., time-dependent, read-out: IC50 (time-dependent enzyme inhibition)), the IC50 is roughly 50 nM. Further, in assay [4] (greater affinity than DOC), the “affinity for the 19-hydroxylase active site relative to the natural substrate (DOC)” value was determined as 12 times.
With `C#CC[C@]12CCC(=O)C=C1CC[C@@H]1[C@@H]2CC[C@]2(C)C(=O)CC[C@@H]12` [10-(2-propynyl)estr-4-ene-3,17-dione], in assay [5], the development of hypertension result is on record as “retards the development of hypertension” and the “levels of urinary free 19-norDOC” value was “reduces the levels of urinary free 19-norDOC”.

In general, IC50 refers to the midpoint of a concentration-inhibition curve.
